Active and inactive are the calls of the source. The calls are words filed in the database; no cut-off is given here.
Assays:
H9c2 [1] = experiment: Inhibition of intracellular ROS level in LPS/hypoxia induced rat H9c2 cells in presence of 2-(4-(5-oxo-5-((5-sulfamoyl-1,3,4-thiadiazol-2-yl)amino)pentyl)-1H-1,2,3-triazol-1-yl)acetic acid and Na2WO4 by DCFH-DA probe based fluorescence confocal microscopy analysis; format: functional, cell-based
H9c2 [2] = experiment: Anti-inflammatory activity in LPS/hypoxia induced rat H9c2 cells assessed as reduction of TNF-alpha protein expression at 10 uM by Western blot analysis; format: functional, cell-based
H9c2 [3] = experiment: Protection against LPS/hypoxia induced apoptosis in rat H9c2 cells assessed as reduction in red fluorescence by confocal microscopy analysis; format: functional, cell-based
H9c2 [4] = experiment: Anti-inflammatory activity in rat H9c2 cells assessed as downregulation of cytochrome C expression at 10 uM in presence of 2-(4-(5-oxo-5-((5-sulfamoyl-1,3,4-thiadiazol-2-yl)amino)pentyl)-1H-1,2,3-triazol-1-yl)acetic acid by Western blot analysis; format: functional, cell-based
H9c2 [5] = experiment: Anti-inflammatory activity in LPS/hypoxia induced rat H9c2 cells assessed as reduction of TNF-alpha protein expression at 10 uM in presence of 2-(4-(5-oxo-5-((5-sulfamoyl-1,3,4-thiadiazol-2-yl)amino)pentyl)-1H-1,2,3-triazol-1-yl)acetic acid by Western blot analysis; format: functional, cell-based
H9c2 [6] = experiment: Reversal of LPS/hypoxia induced mitochondrial membrane potential loss in rat H9c2 cells assessed as increase in JC-1 polymer morphology in presence of 2-(4-(5-oxo-5-((5-sulfamoyl-1,3,4-thiadiazol-2-yl)amino)pentyl)-1H-1,2,3-triazol-1-yl)acetic acid by JC-1 dye based flow cytometry analysis; format: functional, cell-based; details: time 20.0 min
H9c2 [7] = experiment: Reversal of ATP level in LPS/hypoxia induced rat H9c2 cells in presence of 2-(4-(5-oxo-5-((5-sulfamoyl-1,3,4-thiadiazol-2-yl)amino)pentyl)-1H-1,2,3-triazol-1-yl)acetic acid by multimode plate reader analysis (reference value: 21.37 nmol/mg); format: functional
[8] = Toxicity in Wistar rat assessed as change in CRE level in presence of 2-(4-(5-oxo-5-((5-sulfamoyl-1,3,4-thiadiazol-2-yl)amino)pentyl)-1H-1,2,3-triazol-1-yl)acetic acid; details: in vivo
H9c2 [9] = experiment: Anti-inflammatory activity in LPS/hypoxia induced rat H9c2 cells assessed as reduction of IL-1beta protein expression at 10 uM in presence of 2-(4-(5-oxo-5-((5-sulfamoyl-1,3,4-thiadiazol-2-yl)amino)pentyl)-1H-1,2,3-triazol-1-yl)acetic acid by Western blot analysis; format: functional, cell-based
H9c2 [10] = experiment: Protection against LPS/hypoxia induced cell injury in CA9 knockdown rat H9c2 cells assessed as recovery of cell viability at 10 uM by CCK-8 assay; format: functional, cell-based
H9c2 [11] = experiment: Antiinflammatory activity in LPS/hypoxia induced CA9 knockdown rat H9c2 cells assessed as decrease in TNF-alpha protein level at 10 uM by Western blot analysis; format: functional, cell-based

With `COc1ccc2c(c1)c(CC(=O)O)c(C)n2C(=O)c1ccc(Cl)cc1` [INDOMETHACIN] the inhibition (H9c2 [1]) was “Active”, the Activity (H9c2 [2]) was “Active” and the Activity (H9c2 [3]) was “Active”. The Activity (H9c2 [4]) was “Active”, the Activity (H9c2 [5]) was “Active” and the Activity (H9c2 [6]) was “Active”. The Activity (H9c2 [7]) was 47.52 nmol/mg, the Activity [8] was “Toxic” and the Activity (H9c2 [9]) was “Active”. The Activity (H9c2 [10]) was “Active” and the Activity (H9c2 [11]) was “Active”.

Reference: ChEMBL document CHEMBL5104193, “Hypoxia-Activated Prodrugs with Dual COX-2/CA Inhibitory Effects on Attenuating Cardiac Inflammation under Hypoxia” (J Med Chem, 2022)
